Reference: patent US11311544B2, “Treatment of congenital adrenal hyperplasia” (Neurocrine Biosciences, Inc., priority 2014, dated 2022)
Where two headings read alike, the source gives them in different places.

Legend:
[1] = system: plasma ACTH in adrenalectomized (ADX) rats; conditions: Fleck et al., cited from earlier work; for effect on plasma ACTH, acute: highest dose 10 mg/kg, 1 hr post-injection, FIG. 3A-C
CRF1 receptor = biological target: T1, CRF1 receptor (Homo sapiens, UniProt P34998); conditions: as reported in Fleck et al., cited from earlier work; for Ki: Ki=k−1/k1, read-out: Kinetic Ki; for Dissociation t1/2: t1/2=0.693/k−1
T1 sequence (P34998 24-415): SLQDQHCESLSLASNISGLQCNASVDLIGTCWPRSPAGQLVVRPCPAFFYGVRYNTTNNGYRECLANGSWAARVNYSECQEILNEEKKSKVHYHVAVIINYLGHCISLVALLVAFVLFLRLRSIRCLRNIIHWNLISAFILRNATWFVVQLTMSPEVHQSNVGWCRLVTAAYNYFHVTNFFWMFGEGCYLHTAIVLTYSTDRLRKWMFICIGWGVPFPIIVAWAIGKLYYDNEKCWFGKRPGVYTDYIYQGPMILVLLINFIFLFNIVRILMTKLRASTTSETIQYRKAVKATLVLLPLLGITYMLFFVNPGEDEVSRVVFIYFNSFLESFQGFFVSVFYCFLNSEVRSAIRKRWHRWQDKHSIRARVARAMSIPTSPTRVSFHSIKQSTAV

[2] = system: plasma ACTH in adrenalectomized (ADX) rats; assay: Lowering of plasma ACTH in adrenalectomized rats; format: in vivo, rat; conditions: 30 mg/kg single oral dose, FIG. 2
Description: Adrenalectomy eliminates circulating corticosterone (the primary glucocorticoid) in rats and removes the negative feedback control of the HPA axis at both the hypothalamic and pituitary (corticotroph cells) levels and thus chronically elevates plasma ACTH (see, e.g., Mims et al., J. Natl. Med. Assoc. 69:145-47 (1977)). […] These findings were recapitulated with the small molecule NBI-77860 (Compound I). In adrenalectomized rats, Compound I has potent capability for lowering ACTH.
These findings were recapitulated with the small molecule NBI-77860. […] The duration of efficacy correlated with peak plasma concentrations, with a time course exceeding drug plasma exposure.
Fleck et al. also report the effects of CRF1 receptor antagonists differentiated by their dissociation half-life on plasma ACTH levels in adrenalectomized rats; namely, NBI 30775, NBI 34041 and NBI 35965. […] After a longer duration, a clear difference emerged between NBI 35965 and the other two ligands. The ACTH level returned to the vehicle level by 2 hr for NBI 35965 (FIG. 3C), whereas the response was sustained for 4-6 hr for NBI 30775 and NBI 34041 (FIGS. 3A and 3B).

[3] = system: HPA axis response (ACTH) produced by metyrapone; assay: Pharmacodynamic effect of single oral doses on HPA axis response produced by metyrapone in humans; format: in vivo; conditions: human, metyrapone 0.04 g/kg
[4] = system: 17-OHP and ACTH levels (HPA axis hormones); assay: Phase 1 single-dose clinical study in adult females with classical congenital adrenal hyperplasia; format: in vivo, human; conditions: adult female classical CAH patients, single bedtime doses
Experimental: The study was a single-blind, placebo-controlled, single center, fixed-sequence, single-dose clinical trial in adult female classical CAH patients.
The subjects' usual morning dose of concurrent steroidal treatment was delayed until after the 16-hour postdose blood samples were collected (i.e., until approximately 1400 h).
The PD endpoints for this study included the HPA axis biomarkers of interest in this patient population; namely, 17-hydroxyprogesterone (17-OHP; as the primary PD endpoint), adrenocorticotropic hormone (ACTH), androstenedione, testosterone, and serum cortisol levels. The initial analysis of PD variables was an examination of the grouped subject data for each biomarker, expressed as a mean percent change from predose levels for the two active dosing conditions relative to the placebo condition.
This responder analysis yielded a sizeable responder rate of 50% in the study (none of these subjects were responders during the initial placebo treatment period).

[5] = Table 2 rate constant used for t1/2

| Compound | Ki (CRF1 receptor) [nM] | Rate constant (association k1 or dissociation k−1) (CRF1 receptor; [5]) [min⁻¹] | Rate constant (association k1 or dissociation k−1) (CRF1 receptor; association rate constant) | Dissociation t1/2 (CRF1 receptor) [min] | also measured |
| --- | --- | --- | --- | --- | --- |
| CC[C@H]1Cn2nc(-c3ccc(Cl)cc3Cl)c3nc(C)cc(c32)N1CC1CC1.CS(=O)(=O)O [NBI-35965] | 2.3 | 0.048 ± 0.005 | 20 ± 2 10^6M^−1min^−1 | 16 | time by which ACTH level returned to the vehicle level ([1]; 10 mg/kg): ≤ 2 h; effect on plasma ACTH, acute [1]: reduced ACTH acutely |
| CC[C@H](Nc1cc(C)nc2c(-c3ccc(OC)cc3C)c(C)nn12)c1nc(C)no1 [NBI-77860, 2,5-dimethyl-3-[2-methyl-4-(methyloxy)phenyl]-N-[(1S)-1-(3-methyl-1,2,4-oxadiazol-5-yl)propyl]pyrazolo[1,5-a]pyrimidin-7-amine] |  |  |  |  | duration of significant lowering of plasma ACTH levels [2]: up to 5 hours; ACTH AUC (30 min to 4 h) compared to placebo ([3]; single oral dose 10 mg): increase; ACTH AUC (2 h to 4 h) compared with placebo ([3]; single oral dose 10 mg): reduction was not seen; ACTH AUC (30 min to 4 h) compared to placebo ([3]; single oral dose 50 mg): non-significant reduction; ACTH AUC (2 h to 4 h) compared with placebo ([3]; single oral dose 50 mg): significant reduction; ACTH AUC (30 min to 4 h) compared to placebo ([3]; single oral dose 400 mg): significant reduction; ACTH AUC (2 h to 4 h) compared with placebo ([3]; single oral dose 400 mg): significant reduction; effects on 17-OHP and ACTH, 300 mg dose compared with 600 mg dose [4]: nearly identical effects |
| CC[C@@H](C)Nc1nc(C)nc2c(-c3ccc(OC)nc3C)c(C)nn12 [pexacerfont, N-[(2R)-butan-2-yl]-8-(6-methoxy-2-methylpyridin-3-yl)-2,7-dimethylpyrazolo[1,5-a][1,3,5]triazin-4-amine] |  | 0.049 ± 0.001 | 2.6 ± 0.1 10^6M^−1min^−1 | 14 |  |
| CCCC(CCC)N1CCn2nc(-c3ccc(Cl)cc3Cl)c3nc(C)cc1c32 [NBI-34041, 3-(2,4-dichlorophenyl)-9-(heptan-4-yl)-6-methyl-1,2,5,9-tetraazatricyclo[6.3.1.0^4,12] dodeca-2,4(12),5,7-tetraene] | 1.7 | 0.013 ± 0.002 | 8.3 ± 2.0 10^6M^−1min^−1 | 53 | effect on plasma ACTH, acute [1]: reduced ACTH acutely |
| COCC(COC)Nc1nc(C)nc2c(-c3ccc(Cl)cc3Cl)c(C)nn12 [DMP696] | 9.5 | 0.095 ± 0.02 | 7.7 ± 2 10^6M^−1min^−1 | 7.3 |  |
| CCC(CC)Nc1cc(C)nc2c(-c3ccc(OC)cc3C)c(C)nn12 [DMP904] | 0.38 | 0.0072 ± 0.002 | 18 ± 1 10^6M^−1min^−1 |  |  |
| CCCCN(CC)c1nc(C)nc2c1c(C)c(C)n2-c1c(C)cc(C)cc1C [antalarmin, N-butyl-N-ethyl-2,5,6-trimethyl-7-(2,4,6-trimethylphenyl)pyrrolo[3,2-e]pyrimidin-4-amine] | 3.9 | 0.013 ± 0.002 | 3.4 ± 0.6 10^6M^−1min^−1 | 53 |  |
| CCCN(CC1CC1)c1nc(C)nc(Nc2c(Cl)cc(Cl)cc2Cl)c1Cl [NBI-27914] | 25 | 0.27 ± 0.07 | 9.4 ± 3 10^6M^−1min^−1 | 2.6 |  |
| CCC(CC)Nc1c2c(nc3c(-c4ccc(OC)cc4Cl)c(C)nn13)CCC2 [ONO-2333Ms, 10-(2-chloro-4-methoxyphenyl)-11-methyl-N-(pentan-3-yl)-1,8,12-triazatricyclo[7.3.0.0^3,7] dodeca-2,7,9,11-tetraen-2-amine] | 15 | 0.063 ± 0.029 | 4.4 ± 2.2 10^6M^−1min^−1 | 17 |  |
| CCC(CC)Oc1cc(C)nc(Oc2c(C)cc(C)cc2C)c1C [CP-316,311, 3,6-dimethyl-4-(pentan-3-yloxy)-2-(2,4,6-trimethylphenoxy) pyridine] | 12 | 0.17 ± 0.04 | 13 ± 2 10^6M^−1min^−1 | 4.1 |  |
| CCCN(CCC)c1cc(C)nc2c(-c3cnc(N(C)C)cc3C)c(C)nn12 [NBI-30775, 5-[7-(dipropylamino)-2,5-dimethylpyrazolo[1,5-a]pyrimidin-3-yl]-N,N,4-trimethylpyridin-2-amine] |  | 0.0054 ± 0.0006 | 14 ± 2.0 10^6M^−1min^−1 |  | effect on plasma ACTH, acute [1]: reduced ACTH acutely |
| Cc1nnc2n1-c1ccc(Cl)cc1C(c1ccccc1)=NC2 [alprazolam] |  |  |  |  | ACTH AUC (30 min to 4 h) compared to placebo ([3]; single dose alprazolam 0.75 mg): significant reduction |
